Columns and labels:
male Wistar rats [1] = experiment: Inhibition of conditioned avoiding response (CAR), shuttle-box; format: in vivo, rat; conditions: compound given 1 hour before the series of experiment, 50% inhibition dose
Protocol: 1.1 Inhibition of Conditioned Avoiding Response (CAR)
The antipsychotic (neuroleptic) effect was measured by determining the inhibition of the learned conditioned avoiding reflex. At the beginning of teaching, male Wistar rats of 120 to 150 g body weight were used for the experiments. The experimental apparatus was the so called shuttle-box consisting of two rooms of 24 cm×24.5 cm×23 cm size separated from each other by a wall. The two rooms were connected by a gate of 6 cm×9 cm size. During the test, the task of the animals was to pass from one room to the other through the gate in case of a suitable warning stimulus, thus, avoiding the punishing (unconditioned) stimulus. The warning (conditioned) stimulus appeared in the room where the animal was staying. The conditioned stimulus (CS) was a gleaming (1 Hz) white light lasting for 15 seconds. The unconditioned stimulus (US) was a randomized electric shock to the sole with an intensity of 0.6 mA which appeared in the last 5 seconds of the conditioned stimulus. Passing from one room of the shuttle-box to the other during the conditioned stimulus was considered as avoiding response, while passing during the unconditioned stimulus was considered as escaping response. Both responses stopped the actual stimulus, and the trial was finished. The intertrial interval (ITI) was 15 seconds. 80 trials were performed on a day. The learning performance was measured as the ratio of the number of the successful avoiding responses to the total number of trials in percentage. The effect of the neuroleptics was determined on the animals showing a performance of at least 75% after the stabilization of the conditioned reflex. The test compounds were administered to the rats once weekly, 1 hour before the series of experiment. When evaluating the effect of the neuroleptics in each group, the performance of the animals on the day before was used as control. […] These values are given in Table I. Chlorpromazine [2-chloro-10-(3dimethylaminopropyl)phenothiazine] and clozapine [8-chloro-11-(4methyl-1-piperazinyl)-5H-dibenzo[b,e][1,4]diazepine] were used as the reference substance.

male NMRI mice [2] = experiment: Inhibition of apomorphine induced stereotypy on mouse; format: in vivo; conditions: apomorphine hydrochloride subcutaneously 60 min after treatment
Protocol: (§1) 1.2 Inhibition of Apomorphine Stereotypy and Climbing on Mouse
(§2) Male NMRI mice of 20 to 24 g body weight were used in the experiments. The animals were treated with the carrier and the test substance (20 ml of volume/kg body weight), respectively, then 30 minutes later, for habituation, they were placed into wire screen cages of 12 cm×12 cm×12 cm size which could be covered by plexyglass plates. After 30 minutes, […] of apomorphine hydrochloride were administered to the mice in a volume of 10 ml/kg, subcutaneously. The measurement of the stereotyped behaviour was begun at once after the treatment with apomorphine and continued for 25 minutes. The measurement was performed by means of a scale having five grades: • 0 point: normal behaviour corresponding to that of the control animals. • 1 point: permanent exploration activity, smelling or moving the head sideways from time to time. • 2 points: intensive continuous head movement or smelling, periodical exploration activity. • 3 points: licking, biting or gnawing from time to time, alternating with intensive smelling or head movement, locomotor activity lasting for a very short time. • 4 points: continuous intensive licking and/or gnawing in the same place without any locomotor or exploration activity.
Evaluation of stereotypy: in case of each animal, the highest point value obtained during the observation was taken into consideration and recorded, respectively. From the maximum point value, median was calculated for each group which was related to the median of the control group to calculate the effect in percentage.
(§3) In this case again chlorpromazine and clozapine were used as the reference substance.

male NMRI mice [3] = experiment: Inhibition of apomorphine induced climbing on mouse; format: in vivo; conditions: 1 h, po., apomorphine hydrochloride subcutaneously 60 min after treatment
Protocol: as §1, §2
The posture when the mouse climbed up on the vertical wall with at least three legs was considered as climbing. The evaluation was performed in the last ten minutes of the observation on the basis yes/no (+/−).
The frequency was calculated in each group, then the effect was determined in percentage considering the result obtained for the control group as 100%.
as §3

mice = experiment: Inhibition of hypermotility induced by phencyclidine (PCP); format: in vivo; conditions: Mus musculus, 1 h, sc., 3 mg/kg phencyclidine intraperitoneally 60 minutes after treatment, read-out: ID50 in mg/kg sc.
male Wistar rats [4] = experiment: Cataleptogenous effect (method of Morpurgo); format: in vivo, rat; conditions: for Ratio Cat/CAR (MED/ID50): catalepsy MED divided by CAR ID50; for MED in mg/kg po.: rats, minimum effective dosis inducing catalepsy
Text: The cataleptogenous effect was studied according to the method of Morpurgo [Morpurgo, C., Arch. Int. Pharmacodyn., 137, 84 ([…])]. Male Wistar rats of 220 to 240 g body weight have been used for the examinations. The fore-feet of the rats were placed on a gum stopper, one by one, and it was observed how the animal tolerated the unusual posture. The normal (non-cataleptic) animal removes the foot from the stopper during the measuring time of 10 seconds. If the animal keeps the foot on the stopper during the measuring time, this stiff state accompanied by myotonia is evaluated as catalepsy.

[5] = system: isolated right ventricular papillary muscle of the rabbit; experiment: Cardiotoxic effect: effective refractory period (ERP) in vitro; conditions: for % change of ERP (1 μM): papillary muscle paced at 1 Hz, vs. baseline
Protocol: The cardiotoxic effect was determined in isolated right ventricular papillary muscle of the rabbit in vitro.
The modified method of Hackett et al., 1990 was used (Hacket, A. M., Mc Donald S. J., P., Schweingruber, F. and Gartwaite, S. M.: Simple in vitro method to characterize antiarrhythmic agents J. Pharmacol. Methods 23, 107–116, 1990).
The effective refractory period (ERP) was measured in isolated right ventricular papillary muscle of the rabbit in vitro.
The contractions of papillary muscle preparations obtained from New Zealand rabbits weighing 2.5–3.2 kg were evaluated. The contractions (isometrically paced at 1 Hz) were recorded by 4-channel Hugo Sachs apparatus. The effects of the test compounds or references were measured in 1 μM concentration.

Structure (SMILES) | Conditioned reflex, ID50 in mg/kg (male Wistar rats [1]) | Inhibition of stereotypy, ID50 in mg/kg po. (male NMRI mice [2]) | ED50 (male NMRI mice [3]) | ED50 (mice) | melting point | Ratio Cat/CAR (MED/ID50) (male Wistar rats [4]) | MED in mg/kg po. (male Wistar rats [4]) | % change of ERP (1 μM) [5] | cardiotoxic effect (significant prolongation of ERP) ([5]; 1 μM concentration)
Cn1ncc(Cl)c(NCCN2CCC(c3noc4cc(F)ccc34)CC2)c1=O [Example 1, 4-{2-[4-(6-fluoro-1,2-benzisoxazole-3-yl)piperidine-1-yl]ethyl-amino}-5-chloro-2-methyl-2H-pyridazine-3-one] | 0.7 mg/kg | 0.4 mg/kg | 0.3 mg/kg | 0.4 mg/kg | 108 to 109 °C |  |  |  | 
Cn1ncc(Cl)c(NCCCN2CCC(c3noc4cc(F)ccc34)CC2)c1=O [Example 2, 4-{3-[4-(6-fluoro-1,2-benzisoxazole-3-yl)piperidine-1-yl]propyl-amino}-5-chloro-2-methyl-2H-pyridazine-3-one] | 5.8 mg/kg | 2.0 mg/kg | 0.6 mg/kg |  | 117 to 119 °C |  |  |  | 
O=c1[nH]ncc(Cl)c1NCCCN1CCC(c2noc3cc(F)ccc23)CC1 [Example 3, 4-{3-[4-(6-fluoro-1,2-benzisoxazole-3-yl)piperidine-1-yl]propyl-amino}-5-chloro-2H-pyridazine-3-one] |  | 1.2 mg/kg | 0.8 mg/kg |  | 198 to 200 °C |  |  |  | 
Cn1ncc(NCCN2CCC(c3noc4cc(F)ccc34)CC2)c(Cl)c1=O [Example 4, 4-chloro-5-{2-[4-(6-fluoro-1,2-benzisoxazole-3-yl)piperidine-1-yl]ethyl-amino}-2-methyl-2H-pyridazine-3-one] | 0.3 to 0.5 mg/kg | 0.2 mg/kg | 0.06 mg/kg | 0.07 mg/kg |  | about 6 | 3 mg/kg | 11.1 ± 1.7% | 
Cn1ncc(NCCCN2CCC(c3noc4cc(F)ccc34)CC2)c(Cl)c1=O [Example 5, 4-chloro-5-{3-[4-(6-fluoro-1,2-benzisoxazole-3-yl)piperidine-1-yl]propyl-amino}-2-methyl-2H-pyridazine-3-one] | ≦3.0 mg/kg | 2.0 mg/kg | 0.6 mg/kg | 0.46 mg/kg | 200 to 202 °C | >3 | 10 mg/kg | 5.3 ± 0.4% | 
Cn1ncc(NCCN2CCC(c3noc4cc(F)ccc34)CC2)cc1=O [Example 6, 5-{2-[4-(6-fluoro-1,2-benzisoxazole-3-yl)piperidine-1-yl]ethyl-amino}-2-methyl-2H-pyridazine-3-one] |  |  |  | 0.9 mg/kg | 200 to 202 °C |  | >30 mg/kg | 6.1 ± 1.9% | 
Cn1ncc(NCCCN2CCC(c3noc4cc(F)ccc34)CC2)cc1=O [Example 7, 5-{3-[4-(6-fluoro-1,2-benzisoxazole-3-yl)piperidine-1-yl]propyl-amino}-2-methyl-2H-pyridazine-3-one] |  |  |  | 0.4 mg/kg | 163 to 165 °C |  | ~30 mg/kg |  | 
O=c1[nH]ncc(NCCN2CCC(c3noc4cc(F)ccc34)CC2)c1Cl [Example 8, 5-{2-[4-(6-fluoro-1,2-benzisoxazole-3-yl)piperidine-1-yl]ethyl-amino}-4-chloro-2H-pyridazine-3-one] |  |  |  | 0.2 mg/kg | 229 to 231 °C |  | ~10 mg/kg | 1.5 ± 1.5% | 
O=c1cc(NCCN2CCC(c3noc4cc(F)ccc34)CC2)cn[nH]1 [Example 9, 5-{2-[4-(6-fluoro-1,2-benzisoxazole-3-yl)piperidine-1-yl]ethyl-amino}-2H-pyridazine-3-one] |  |  |  | 1.4 mg/kg | 97 to 99 °C |  | >10 mg/kg | 0.4 ± 1.1% | 
COc1cc(C(C)=O)ccc1OCCCN1CCC(c2noc3cc(F)ccc23)CC1 [Iloperidone, reference compound] |  |  |  |  |  |  |  | 31.9 ± 7.8 % | considerable and significant cardiotoxic potential
CN(C)CCCN1c2ccccc2Sc2ccc(Cl)cc21 [chlorpromazine, 2-chloro-10-(3dimethylaminopropyl)phenothiazine, reference compound] | 13.2 mg/kg | 6.8 mg/kg | 6.1 mg/kg |  |  |  |  |  | 
CN1CCN(C2=Nc3cc(Cl)ccc3Nc3ccccc32)CC1 [clozapine, 8-chloro-11-(4methyl-1-piperazinyl)-5H-dibenzo[b,e][1,4]diazepine, reference compound] | 21.3 mg/kg | 35.4 mg/kg | 11.8 mg/kg | 2.9 mg/kg |  |  |  |  | 
O=C(CCCN1CCC(O)(c2ccc(Cl)cc2)CC1)c1ccc(F)cc1 [haloperidol, 4-(4-chlorophenyl-4-hydroxy-1-piperidinyl)-1-(4-fluorophenyl)-1-butanone, reference compound] |  |  |  | 1.2 mg/kg |  |  | 1 mg/kg |  | 
